# Measurements as given in publication PMC5563081, “Modulating Protein-Protein Interactions of the Mitotic Polo-like Kinases to Target Mutant KRAS” (Cell Chemical Biology, 2017).
# Read-outs that look alike come from different tables or passages of the source.
# Columns and labels:
# [1] = test system: murine pancreatic organoids KRAS WT p53 MUT; test: Viability of pancreatic organoids (CellTitre Glo 3D), KRAS WT; type: cell-based; conditions: Mus musculus, read-out: Mean GI50
# Method: Organoid cultures were prepared from the pancreas of LSL-Trp53^R172H/+, Pdx-1-Cre (for Kras WT organoids) or LSL-Trp53^R172H/+, LSL-Kras^G12D/+, Pdx-1-Cre (for Kras^G12D organoids KPC3760 and KPC26684) strains ([Hingorani et al., 2005]). Pancreatic ducts were manually picked after tissue mincing and overnight enzymatic digestion with 0.012% (w/v) collagenase XI (Sigma) and 0.012% (w/v) dispase (GIBCO) in DMEM media containing 1% FBS (GIBCO), before seeding in growth-factor-reduced (GFR) Matrigel (BD) ([Boj et al., 2015]).
# Pancreatic organoids were extracted and cultured as detailed above ([Boj et al., 2015]). In brief, pancreatic organoids were seeded at 600 cells per well in a 96 well plate and allowed to grow for 7 days with media replenishment on the 3rd day. Full-grown organoids were then treated with compounds for 72h and viability determined using CellTitre Glo 3D assay (Promega). For viability assays with c-MET siRNA, cells were reverse transfected in a 6 cm dish using Dharmafect 1 (GE Dharmacon) per manufacturer’s instructions. On the following day, cells were trypsinised and plated onto 96 well plates or 6 well plates. The 96 well plates were treated with a dose range of compounds or DMSO, and viability was determined via SRB colorimetric assay. Cells in the 6 well plates were collected at the end of experiment to corroborate knockdown of c-MET by Western blotting.
# AURKA = biological target: T1, AURKA (Homo sapiens, UniProt O14965); test: DiscoverX KINOMEscan; type: binding; conditions: read-out: % Control
# T1 construct: purchased DiscoverX KINOMEscan
# Method: (§1) A panel of 55 proteins (comprising 51 human kinases structurally or functionally related to the PLKs, plus the kinase catalytic domains of PLK1, PLK2, PLK3 and PLK4) were selected for testing by DiscoverX using the KINOMEscan assay platform. Compounds were supplied as 40x DMSO stocks and were tested at a final concentration of 50μM for Poloppin and 5μM for Poloppin-II. Binding interactions were reported as percentage of control where lower numbers indicate stronger binding. A cut-off of <35% was applied to report significant binding.
# AURKC = biological target: T2, AURKC (Homo sapiens, UniProt Q9UQB9); test: DiscoverX KINOMEscan; type: binding; conditions: read-out: % Control
# T2 construct: purchased DiscoverX KINOMEscan
# Method: as §1
# BMP2K = biological target: T3, BMP2K (Homo sapiens, UniProt Q9NSY1); test: DiscoverX KINOMEscan; type: binding; conditions: read-out: % Control
# T3 construct: purchased DiscoverX KINOMEscan
# Method: as §1
# CAMKK1 = biological target: T4, CAMKK1 (Homo sapiens, UniProt Q8N5S9); test: DiscoverX KINOMEscan; type: binding; conditions: read-out: % Control
# T4 construct: purchased DiscoverX KINOMEscan
# Method: as §1
# CAMKK2 = biological target: T5, CAMKK2 (Homo sapiens, UniProt Q96RR4); test: DiscoverX KINOMEscan; type: binding; conditions: read-out: % Control
# T5 construct: purchased DiscoverX KINOMEscan
# Method: as §1
# CSNK2A1 = biological target: T6, CSNK2A1 (Homo sapiens, UniProt P68400); test: DiscoverX KINOMEscan; type: binding; conditions: read-out: % Control
# T6 construct: purchased DiscoverX KINOMEscan
# T6 sequence (P68400 whole entry): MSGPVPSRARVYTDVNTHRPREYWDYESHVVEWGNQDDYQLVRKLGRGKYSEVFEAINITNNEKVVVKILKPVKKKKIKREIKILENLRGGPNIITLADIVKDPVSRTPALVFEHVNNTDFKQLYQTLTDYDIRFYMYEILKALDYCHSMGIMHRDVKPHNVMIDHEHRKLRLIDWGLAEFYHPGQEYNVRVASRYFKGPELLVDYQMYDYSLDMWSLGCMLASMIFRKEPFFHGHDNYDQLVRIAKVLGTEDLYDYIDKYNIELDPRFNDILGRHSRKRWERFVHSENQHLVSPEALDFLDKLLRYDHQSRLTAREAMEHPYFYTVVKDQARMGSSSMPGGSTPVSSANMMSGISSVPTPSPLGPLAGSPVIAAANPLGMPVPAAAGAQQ
# Method: as §1
# DSTYK = biological target: T7, DSTYK (Homo sapiens, UniProt Q6XUX3); test: DiscoverX KINOMEscan; type: binding; conditions: read-out: % Control
# T7 construct: purchased DiscoverX KINOMEscan
# Method: as §1
# EIF2AK1 = biological target: T8, EIF2AK1 (Homo sapiens, UniProt Q9BQI3); test: DiscoverX KINOMEscan; type: binding; conditions: read-out: % Control
# T8 construct: purchased DiscoverX KINOMEscan
# T8 sequence (Q9BQI3 whole entry): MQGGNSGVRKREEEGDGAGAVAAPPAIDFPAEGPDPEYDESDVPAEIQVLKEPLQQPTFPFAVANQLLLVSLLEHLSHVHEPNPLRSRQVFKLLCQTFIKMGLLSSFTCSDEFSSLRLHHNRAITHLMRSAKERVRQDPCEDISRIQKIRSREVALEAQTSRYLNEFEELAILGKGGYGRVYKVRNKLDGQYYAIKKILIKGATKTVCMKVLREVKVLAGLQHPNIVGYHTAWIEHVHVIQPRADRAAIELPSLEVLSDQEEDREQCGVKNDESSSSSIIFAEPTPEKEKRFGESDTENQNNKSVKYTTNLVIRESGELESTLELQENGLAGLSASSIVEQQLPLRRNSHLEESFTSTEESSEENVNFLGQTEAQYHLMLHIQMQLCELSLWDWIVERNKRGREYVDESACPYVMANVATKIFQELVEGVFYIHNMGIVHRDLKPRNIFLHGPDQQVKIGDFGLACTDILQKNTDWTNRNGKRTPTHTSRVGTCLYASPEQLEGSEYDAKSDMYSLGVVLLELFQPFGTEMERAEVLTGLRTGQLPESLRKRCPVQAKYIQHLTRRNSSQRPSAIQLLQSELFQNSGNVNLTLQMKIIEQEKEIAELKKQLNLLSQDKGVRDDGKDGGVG
# Method: as §1
# ERN1 = biological target: T9, ERN1 (Homo sapiens, UniProt O75460); test: DiscoverX KINOMEscan; type: binding; conditions: read-out: % Control
# T9 construct: purchased DiscoverX KINOMEscan
# Method: as §1
# GSG2 = biological target: T10, GSG2 (Homo sapiens, UniProt Q8TF76); test: DiscoverX KINOMEscan; type: binding; conditions: read-out: % Control
# T10 construct: purchased DiscoverX KINOMEscan
# Method: as §1
# IKBKB = biological target: T11, IKBKB (Homo sapiens, UniProt O14920); test: DiscoverX KINOMEscan; type: binding; conditions: read-out: % Control
# T11 construct: purchased DiscoverX KINOMEscan
# Method: as §1
# IKBKE = biological target: T12, IKBKE (Homo sapiens, UniProt Q14164); test: DiscoverX KINOMEscan; type: binding; conditions: read-out: % Control
# T12 construct: purchased DiscoverX KINOMEscan
# Method: as §1
# NEK10 = biological target: T13, NEK10 (Homo sapiens, UniProt Q6ZWH5); test: DiscoverX KINOMEscan; type: binding; conditions: read-out: % Control
# T13 construct: purchased DiscoverX KINOMEscan
# Method: as §1
# NEK2 = biological target: T14, NEK2 (Homo sapiens, UniProt P51955); test: DiscoverX KINOMEscan; type: binding; conditions: read-out: % Control
# T14 construct: purchased DiscoverX KINOMEscan
# Method: as §1
# NEK3 = biological target: T15, NEK3 (Homo sapiens, UniProt P51956); test: DiscoverX KINOMEscan; type: binding; conditions: read-out: % Control
# T15 construct: purchased DiscoverX KINOMEscan
# T15 sequence (P51956 whole entry): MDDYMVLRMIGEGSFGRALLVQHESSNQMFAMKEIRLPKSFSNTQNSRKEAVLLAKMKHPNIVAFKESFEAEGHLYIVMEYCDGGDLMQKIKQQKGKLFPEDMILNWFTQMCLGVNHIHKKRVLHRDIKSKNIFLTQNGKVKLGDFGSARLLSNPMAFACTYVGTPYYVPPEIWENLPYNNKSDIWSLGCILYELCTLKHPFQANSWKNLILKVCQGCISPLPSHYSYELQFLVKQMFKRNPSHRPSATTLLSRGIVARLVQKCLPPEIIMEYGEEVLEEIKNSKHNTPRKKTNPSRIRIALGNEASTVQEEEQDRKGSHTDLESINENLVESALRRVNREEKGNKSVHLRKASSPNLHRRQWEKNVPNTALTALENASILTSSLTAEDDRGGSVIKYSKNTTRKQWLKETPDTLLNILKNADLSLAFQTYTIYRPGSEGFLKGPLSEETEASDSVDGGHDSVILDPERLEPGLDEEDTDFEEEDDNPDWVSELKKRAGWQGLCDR
# Method: as §1
# NEK5 = biological target: T16, NEK5 (Homo sapiens, UniProt Q6P3R8); test: DiscoverX KINOMEscan; type: binding; conditions: read-out: % Control
# T16 construct: purchased DiscoverX KINOMEscan
# Method: as §1
# PKMYT1 = biological target: T17, PKMYT1 (Homo sapiens, UniProt Q99640); test: DiscoverX KINOMEscan; type: binding; conditions: read-out: % Control
# T17 construct: purchased DiscoverX KINOMEscan
# Method: as §1
# [2] = biological target: T18, PLK1 kinase catalytic domain (Homo sapiens, UniProt P53350); test: DiscoverX KINOMEscan; type: binding; conditions: read-out: % Control
# T18 construct: PLK1 kinase catalytic domain; purchased DiscoverX KINOMEscan
# Method: as §1
# [3] = biological target: T19, PLK2 kinase catalytic domain (Homo sapiens, UniProt Q9NYY3); test: DiscoverX KINOMEscan; type: binding; conditions: read-out: % Control
# T19 construct: PLK2 kinase catalytic domain; purchased DiscoverX KINOMEscan
# T19 sequence (Q9NYY3 82-334 limits assumed): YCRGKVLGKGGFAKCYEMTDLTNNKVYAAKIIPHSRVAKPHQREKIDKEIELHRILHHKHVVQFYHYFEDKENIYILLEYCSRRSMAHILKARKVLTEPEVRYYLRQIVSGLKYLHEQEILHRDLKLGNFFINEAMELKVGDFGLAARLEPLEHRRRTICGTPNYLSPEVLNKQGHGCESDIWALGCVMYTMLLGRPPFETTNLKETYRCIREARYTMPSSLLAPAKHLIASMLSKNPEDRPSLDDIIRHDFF
# Method: as §1
# [4] = biological target: T20, PLK3 kinase catalytic domain (Homo sapiens, UniProt Q9H4B4); test: DiscoverX KINOMEscan; type: binding; conditions: read-out: % Control
# T20 construct: PLK3 kinase catalytic domain; purchased DiscoverX KINOMEscan
# Method: as §1
# [5] = biological target: T21, PLK4 kinase catalytic domain (Homo sapiens, UniProt O00444); test: DiscoverX KINOMEscan; type: binding; conditions: read-out: % Control
# T21 construct: PLK4 kinase catalytic domain; purchased DiscoverX KINOMEscan
# Method: as §1
# ROCK2 = biological target: T22, ROCK2 (Homo sapiens, UniProt O75116); test: DiscoverX KINOMEscan; type: binding; conditions: read-out: % Control
# T22 construct: purchased DiscoverX KINOMEscan
# Method: as §1
# STK16 = biological target: T23, STK16 (Homo sapiens, UniProt O75716); test: DiscoverX KINOMEscan; type: binding; conditions: read-out: % Control
# T23 construct: purchased DiscoverX KINOMEscan
# Method: as §1
# STK35 = biological target: T24, STK35 (Homo sapiens, UniProt Q8TDR2); test: DiscoverX KINOMEscan; type: binding; conditions: read-out: % Control
# T24 construct: purchased DiscoverX KINOMEscan
# Method: as §1
# STK36 = biological target: T25, STK36 (Homo sapiens, UniProt Q9NRP7); test: DiscoverX KINOMEscan; type: binding; conditions: read-out: % Control
# T25 construct: purchased DiscoverX KINOMEscan
# T25 sequence (Q9NRP7 whole entry): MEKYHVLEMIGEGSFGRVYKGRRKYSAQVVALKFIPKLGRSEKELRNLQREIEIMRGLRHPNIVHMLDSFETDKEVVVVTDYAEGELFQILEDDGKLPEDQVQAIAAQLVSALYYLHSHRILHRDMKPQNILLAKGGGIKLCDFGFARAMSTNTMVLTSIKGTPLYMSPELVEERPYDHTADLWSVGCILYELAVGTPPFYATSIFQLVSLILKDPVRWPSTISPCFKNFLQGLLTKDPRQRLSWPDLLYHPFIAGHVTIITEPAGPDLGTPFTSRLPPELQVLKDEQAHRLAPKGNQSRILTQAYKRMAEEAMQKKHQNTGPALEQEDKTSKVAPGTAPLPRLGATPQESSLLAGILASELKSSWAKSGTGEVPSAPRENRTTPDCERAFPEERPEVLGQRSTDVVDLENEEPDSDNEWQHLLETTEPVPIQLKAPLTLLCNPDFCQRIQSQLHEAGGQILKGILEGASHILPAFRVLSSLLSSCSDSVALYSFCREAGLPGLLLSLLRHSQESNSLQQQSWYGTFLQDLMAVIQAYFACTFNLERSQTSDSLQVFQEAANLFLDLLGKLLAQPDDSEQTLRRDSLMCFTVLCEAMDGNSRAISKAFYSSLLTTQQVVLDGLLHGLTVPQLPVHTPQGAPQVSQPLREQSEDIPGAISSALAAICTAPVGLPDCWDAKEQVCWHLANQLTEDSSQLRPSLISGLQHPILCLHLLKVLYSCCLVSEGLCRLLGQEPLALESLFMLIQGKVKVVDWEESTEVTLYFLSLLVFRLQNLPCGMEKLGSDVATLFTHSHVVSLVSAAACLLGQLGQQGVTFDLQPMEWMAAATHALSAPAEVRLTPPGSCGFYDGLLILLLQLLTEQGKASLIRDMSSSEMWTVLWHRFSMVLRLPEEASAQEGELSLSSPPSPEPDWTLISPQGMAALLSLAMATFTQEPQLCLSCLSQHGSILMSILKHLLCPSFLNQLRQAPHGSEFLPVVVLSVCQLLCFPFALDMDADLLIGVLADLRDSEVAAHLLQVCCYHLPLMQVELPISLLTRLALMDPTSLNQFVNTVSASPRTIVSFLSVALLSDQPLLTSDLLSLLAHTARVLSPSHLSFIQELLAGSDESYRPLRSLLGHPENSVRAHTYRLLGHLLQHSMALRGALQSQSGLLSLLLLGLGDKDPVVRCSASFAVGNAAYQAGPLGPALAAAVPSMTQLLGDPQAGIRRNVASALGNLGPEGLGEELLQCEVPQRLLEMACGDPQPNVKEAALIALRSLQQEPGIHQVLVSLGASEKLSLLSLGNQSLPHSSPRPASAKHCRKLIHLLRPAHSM
# Method: as §1
# TLK2 = biological target: T26, TLK2 (Homo sapiens, UniProt Q86UE8); test: DiscoverX KINOMEscan; type: binding; conditions: read-out: % Control
# T26 construct: purchased DiscoverX KINOMEscan
# Method: as §1
# TTK = biological target: T27, TTK (Homo sapiens, UniProt P33981); test: DiscoverX KINOMEscan; type: binding; conditions: read-out: % Control
# T27 construct: purchased DiscoverX KINOMEscan
# T27 sequence (P33981 whole entry): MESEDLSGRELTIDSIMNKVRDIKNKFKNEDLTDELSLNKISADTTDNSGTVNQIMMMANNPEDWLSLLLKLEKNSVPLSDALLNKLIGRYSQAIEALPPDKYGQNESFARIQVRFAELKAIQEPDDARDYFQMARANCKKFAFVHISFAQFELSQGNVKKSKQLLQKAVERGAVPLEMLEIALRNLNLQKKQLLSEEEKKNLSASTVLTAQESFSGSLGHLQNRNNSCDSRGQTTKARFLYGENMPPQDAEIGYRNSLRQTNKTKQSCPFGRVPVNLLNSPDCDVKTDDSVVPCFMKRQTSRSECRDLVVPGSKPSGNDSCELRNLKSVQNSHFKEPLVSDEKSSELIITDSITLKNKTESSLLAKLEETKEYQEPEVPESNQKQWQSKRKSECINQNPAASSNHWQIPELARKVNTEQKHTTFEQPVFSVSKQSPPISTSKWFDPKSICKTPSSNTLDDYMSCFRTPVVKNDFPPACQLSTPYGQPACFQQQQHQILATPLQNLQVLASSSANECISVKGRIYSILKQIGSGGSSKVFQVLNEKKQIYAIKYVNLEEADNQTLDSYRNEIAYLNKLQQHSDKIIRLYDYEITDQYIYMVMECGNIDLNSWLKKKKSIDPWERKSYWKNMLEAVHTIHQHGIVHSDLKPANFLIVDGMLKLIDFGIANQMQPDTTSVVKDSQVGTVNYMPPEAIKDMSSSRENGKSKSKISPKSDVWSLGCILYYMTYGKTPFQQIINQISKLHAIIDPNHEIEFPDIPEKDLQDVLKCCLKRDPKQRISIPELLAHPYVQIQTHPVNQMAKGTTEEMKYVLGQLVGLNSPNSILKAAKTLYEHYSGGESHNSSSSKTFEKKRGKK
# Method: as §1
# ULK1 = biological target: T28, ULK1 (Homo sapiens, UniProt O75385); test: DiscoverX KINOMEscan; type: binding; conditions: read-out: % Control
# T28 construct: purchased DiscoverX KINOMEscan
# Method: as §1
# ULK2 = biological target: T29, ULK2 (Homo sapiens, UniProt Q8IYT8); test: DiscoverX KINOMEscan; type: binding; conditions: read-out: % Control
# T29 construct: purchased DiscoverX KINOMEscan
# T29 sequence (Q8IYT8 whole entry): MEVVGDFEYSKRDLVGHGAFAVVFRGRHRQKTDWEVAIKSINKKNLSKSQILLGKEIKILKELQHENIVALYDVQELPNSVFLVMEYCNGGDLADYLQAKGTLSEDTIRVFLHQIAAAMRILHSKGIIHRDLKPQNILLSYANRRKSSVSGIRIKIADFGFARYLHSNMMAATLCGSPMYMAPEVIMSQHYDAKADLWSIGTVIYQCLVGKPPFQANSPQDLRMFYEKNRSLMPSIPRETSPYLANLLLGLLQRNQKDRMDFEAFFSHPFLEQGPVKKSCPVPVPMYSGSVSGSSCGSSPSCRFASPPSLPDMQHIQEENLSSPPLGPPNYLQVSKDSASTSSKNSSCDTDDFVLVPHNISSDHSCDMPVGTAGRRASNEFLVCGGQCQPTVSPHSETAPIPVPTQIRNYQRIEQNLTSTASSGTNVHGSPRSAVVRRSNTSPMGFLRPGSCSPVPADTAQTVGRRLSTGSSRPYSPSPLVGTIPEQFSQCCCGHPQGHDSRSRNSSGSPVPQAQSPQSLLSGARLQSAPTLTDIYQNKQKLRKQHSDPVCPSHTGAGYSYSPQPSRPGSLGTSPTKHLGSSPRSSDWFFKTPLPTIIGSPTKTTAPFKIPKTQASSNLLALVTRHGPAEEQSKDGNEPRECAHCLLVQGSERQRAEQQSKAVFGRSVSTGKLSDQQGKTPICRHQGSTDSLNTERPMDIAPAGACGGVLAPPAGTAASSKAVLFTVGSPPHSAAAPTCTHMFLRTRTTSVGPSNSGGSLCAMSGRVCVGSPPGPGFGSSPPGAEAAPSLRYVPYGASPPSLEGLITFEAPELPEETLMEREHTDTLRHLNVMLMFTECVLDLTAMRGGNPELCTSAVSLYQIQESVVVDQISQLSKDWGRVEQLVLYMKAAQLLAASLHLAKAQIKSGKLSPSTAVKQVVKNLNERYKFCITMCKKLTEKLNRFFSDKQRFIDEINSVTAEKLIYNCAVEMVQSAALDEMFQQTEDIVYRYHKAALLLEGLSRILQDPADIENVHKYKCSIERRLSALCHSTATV
# Method: as §1
# WNK1 = biological target: T30, WNK1 (Homo sapiens, UniProt Q9H4A3); test: DiscoverX KINOMEscan; type: binding; conditions: read-out: % Control
# T30 construct: purchased DiscoverX KINOMEscan
# Method: as §1
# WNK4 = biological target: T31, WNK4 (Homo sapiens, UniProt Q96J92); test: DiscoverX KINOMEscan; type: binding; conditions: read-out: % Control
# T31 construct: purchased DiscoverX KINOMEscan
# Method: as §1
compound,measurement,setting,value
O=C(O)CCc1ccc(-c2ccc(Br)cc2)n1-c1ccccc1C(F)(F)F [Poloppin],GI50,[1],119 µM
same,remaining binding at 50 µM,AURKA,81%
same,remaining binding at 50 µM,AURKC,81%
same,remaining binding at 50 µM,BMP2K,68%
same,remaining binding at 50 µM,CAMKK1,77%
same,remaining binding at 50 µM,CAMKK2,82%
same,remaining binding at 50 µM,CSNK2A1,87%
same,remaining binding at 50 µM,DSTYK,49%
same,remaining binding at 50 µM,EIF2AK1,97%
same,remaining binding at 50 µM,ERN1,76%
same,remaining binding at 50 µM,GSG2,100%
same,remaining binding at 50 µM,IKBKB,100%
same,remaining binding at 50 µM,IKBKE,55%
same,remaining binding at 50 µM,NEK10,98%
same,remaining binding at 50 µM,NEK2,95%
same,remaining binding at 50 µM,NEK3,72%
same,remaining binding at 50 µM,NEK5,83%
same,remaining binding at 50 µM,PKMYT1,98%
same,remaining binding at 50 µM,[2],100%
same,remaining binding at 50 µM,[3],78%
same,remaining binding at 50 µM,[4],83%
same,remaining binding at 50 µM,[5],88%
same,remaining binding at 50 µM,ROCK2,100%
same,remaining binding at 50 µM,STK16,81%
same,remaining binding at 50 µM,STK35,100%
same,remaining binding at 50 µM,STK36,91%
same,remaining binding at 50 µM,TLK2,90%
same,remaining binding at 50 µM,TTK,85%
same,remaining binding at 50 µM,ULK1,84%
same,remaining binding at 50 µM,ULK2,100%
same,remaining binding at 50 µM,WNK1,100%
same,remaining binding at 50 µM,WNK4,100%
CN(C)CCNC(=O)c1ccc(-c2ccc(-c3ccc(Cl)cc3)n2-c2ccccc2C(F)(F)F)cc1 [Poloppin-II],GI50,"[1]; organoids KRAS WT p53 MUT, n=2",102 µM
same,remaining binding at 5 µM,"AURKA; AURKA, Poloppin-II 5µM, hit <35%",83%
same,remaining binding at 5 µM,"AURKC; AURKC, Poloppin-II 5µM, hit <35%",85%
same,remaining binding at 5 µM,"BMP2K; BMP2K, Poloppin-II 5µM, hit <35%",85%
same,remaining binding at 5 µM,"CAMKK1; CAMKK1, Poloppin-II 5µM, hit <35%",91%
same,remaining binding at 5 µM,"CAMKK2; CAMKK2, Poloppin-II 5µM, hit <35%",97%
same,remaining binding at 5 µM,"CSNK2A1; CSNK2A1, Poloppin-II 5µM, hit <35%",96%
same,remaining binding at 5 µM,"DSTYK; DSTYK, Poloppin-II 5µM, hit <35%",75%
same,remaining binding at 5 µM,"EIF2AK1; EIF2AK1, Poloppin-II 5µM, hit <35%",98%
same,remaining binding at 5 µM,"ERN1; ERN1, Poloppin-II 5µM, hit <35%",74%
same,remaining binding at 5 µM,"GSG2; GSG2, Poloppin-II 5µM, hit <35%",77%
same,remaining binding at 5 µM,"IKBKB; IKBKB, Poloppin-II 5µM, hit <35%",100%
same,remaining binding at 5 µM,"IKBKE; IKBKE, Poloppin-II 5µM, hit <35%",75%
same,remaining binding at 5 µM,"NEK10; NEK10, Poloppin-II 5µM, hit <35%",94%
same,remaining binding at 5 µM,"NEK2; NEK2, Poloppin-II 5µM, hit <35%",94%
same,remaining binding at 5 µM,"NEK3; NEK3, Poloppin-II 5µM, hit <35%",74%
same,remaining binding at 5 µM,"NEK5; NEK5, Poloppin-II 5µM, hit <35%",99%
same,remaining binding at 5 µM,"PKMYT1; PKMYT1, Poloppin-II 5µM, hit <35%",100%
same,remaining binding at 5 µM,"[2]; PLK1, Poloppin-II 5µM, hit <35%",100%
same,remaining binding at 5 µM,"[3]; PLK2, Poloppin-II 5µM, hit <35%",85%
same,remaining binding at 5 µM,"[4]; PLK3, Poloppin-II 5µM, hit <35%",74%
same,remaining binding at 5 µM,"[5]; PLK4, Poloppin-II 5µM, hit <35%",90%
same,remaining binding at 5 µM,"ROCK2; ROCK2, Poloppin-II 5µM, hit <35%",100%
same,remaining binding at 5 µM,"STK16; STK16, Poloppin-II 5µM, hit <35%",92%
same,remaining binding at 5 µM,"STK35; STK35, Poloppin-II 5µM, hit <35%",71%
same,remaining binding at 5 µM,"STK36; STK36, Poloppin-II 5µM, hit <35%",91%
same,remaining binding at 5 µM,"TLK2; TLK2, Poloppin-II 5µM, hit <35%",94%
same,remaining binding at 5 µM,"TTK; TTK, Poloppin-II 5µM, hit <35%",83%
same,remaining binding at 5 µM,"ULK1; ULK1, Poloppin-II 5µM, hit <35%",84%
same,remaining binding at 5 µM,"ULK2; ULK2, Poloppin-II 5µM, hit <35%",100%
same,remaining binding at 5 µM,"WNK1; WNK1, Poloppin-II 5µM, hit <35%",97%
same,remaining binding at 5 µM,"WNK4; WNK4, Poloppin-II 5µM, hit <35%",91%
